Experimental data published in ChEMBL document CHEMBL1201862, “PubChem BioAssay data set” (2004).
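Protocol summary: plate cells (96-well), add compound at 5 concentrations, incubate 48 h, interpolate endpoints linearly. At the GI50, growth is halved.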 Active and inactive are the calls of the source. Cut-off read from the data, not from the text of the source: active = GI50 up to about 1.1 µM and inactive = higher.

Columns and labels:
Assay in all cases: NCI anticancer screen, dose series, 48 h
[1] = system: A549
[2] = system: OVCAR-4
[3] = system: HOP-92
[4] = system: RXF 393
[5] = system: OVCAR-3
[6] = system: MDA-MB-231
[7] = system: UO-31
[8] = system: K562
[9] = system: T47D
[10] = system: NCI-H23
[11] = system: SF-539
[12] = system: HOP-62
[13] = system: SR
[14] = system: HL-60
[15] = system: COLO 205
[16] = system: ACHN
[17] = system: SK-MEL-28
[18] = system: SF-268
[19] = system: CCRF-CEM

Measured: GI50

COc1ccc2nc(/C(N)=C\C#N)ccc2c1
inactive: [1] 47.2 µM | [2] 86.7 µM | [3] 91.8 µM | [4] 1.89 µM | [5] 31.6 µM | [6] > 100 µM | [7] 32.8 µM | [8] 31.6 µM | [9] 30.9 µM | [10] 90.2 µM | [11] 46 µM | [12] > 100 µM | [13] 22.3 µM | [14] 18 µM | [15] 56 µM | [16] 75.2 µM | [17] > 100 µM | [18] 33.7 µM | [19] 40.3 µM

COC(=O)[C@@H]1C[C@]2(CC=C(C)C)c3ccccc3N(S(=O)(=O)c3ccccc3)[C@@H]2N1C(=O)OC
inactive: [1] 11.6 µM | [2] 18.1 µM | [3] 15.1 µM | [4] 8.22 µM | [5] 19.4 µM | [6] 20.4 µM | [7] 28.8 µM | [8] 9.55 µM | [9] 5.94 µM | [10] > 100 µM | [11] 24.8 µM | [12] 26.8 µM | [13] 5.33 µM | [14] 9.14 µM | [15] 28.2 µM | [16] 25.5 µM | [17] 47.1 µM | [18] 18 µM | [19] 27.9 µM

CCOC(=O)C1=C(C)C(C(=O)OC)/C(=C/c2cccc3cccnc23)C1=O (configuration not stated)
inactive: [1] > 10 µM | [2] > 10 µM | [3] > 10 µM | [4] > 10 µM | [5] > 10 µM | [6] > 10 µM | [7] > 10 µM | [8] > 10 µM | [9] > 10 µM | [10] > 10 µM | [11] > 10 µM | [12] > 10 µM | [13] > 10 µM | [14] 9.82 µM | [15] > 10 µM | [16] > 10 µM | [17] > 10 µM | [18] > 10 µM | [19] > 10 µM
